Data: the NIST ThermoML archive (doi:10.1021/je060271a)
Where “and” joins values, the source holds several entries; their conditions need not be identical. Equal values may be shown once. Numbers after ± are expanded uncertainties.

Details: 283.15 K, Liquid, Vibrating tube method

Structure (SMILES): CCCCCC(=O)OCC(COC(=O)CCCCC)(COC(=O)CCCCC)COC(=O)CCCCC [pentaerythritol tetrahexanoate]
- mass density (10919 kPa): 1010.4 ± 1.2 kg/m3
- mass density (10934 kPa): 1010.4 ± 1.2 kg/m3
- mass density (10949 kPa): 1010.4 ± 1.2 kg/m3
- mass density (10966 kPa): 1010.5 ± 1.2 kg/m3
- mass density (10983 kPa): 1010.4 ± 1.2 kg/m3
- mass density (10998 kPa): 1010.5 ± 1.2 kg/m3
- mass density (11013 kPa): 1010.5 ± 1.2 kg/m3
- mass density (11028 kPa): 1010.6 ± 1.2 kg/m3
- mass density (11046 kPa): 1010.5 ± 1.2 kg/m3
- mass density (11060 kPa): 1010.6 ± 1.2 kg/m3
- mass density (11075 kPa): 1010.4 ± 1.2 kg/m3
- mass density (11093 kPa): 1010.5 ± 1.2 kg/m3
- mass density (11108 kPa): 1010.6 ± 1.2 kg/m3
- mass density (11126 kPa): 1010.6 ± 1.2 kg/m3
- mass density (11141 kPa): 1010.5 ± 1.2 kg/m3
- mass density (11157 kPa): 1010.6 ± 1.2 kg/m3
- mass density (11173 kPa): 1010.6 ± 1.2 kg/m3
- mass density (11191 kPa): 1010.5 ± 1.2 kg/m3
- mass density (11206 kPa): 1010.6 ± 1.2 kg/m3
- mass density (11221 kPa): 1010.5 ± 1.2 kg/m3
- mass density (11237 kPa): 1010.6 ± 1.2 kg/m3
- mass density (11256 kPa): 1010.5 ± 1.2 kg/m3
- mass density (11271 kPa): 1010.6 ± 1.2 kg/m3
- mass density (11289 kPa): 1010.8 ± 1.2 kg/m3
- mass density (11304 kPa): 1010.6 ± 1.2 kg/m3
- mass density (11320 kPa): 1010.7 ± 1.2 kg/m3
- mass density (11339 kPa): 1010.7 ± 1.2 kg/m3
- mass density (11355 kPa): 1010.7 ± 1.2 kg/m3
- mass density (11370 kPa): 1010.6 ± 1.2 kg/m3
- mass density (11387 kPa): 1010.7 ± 1.2 kg/m3
- mass density (11406 kPa): 1010.7 ± 1.2 kg/m3
- mass density (11422 kPa): 1010.7 ± 1.2 kg/m3
- mass density (11438 kPa): 1010.7 ± 1.2 kg/m3
- mass density (11457 kPa): 1010.8 ± 1.2 kg/m3
- mass density (11473 kPa): 1010.8 ± 1.2 kg/m3
- mass density (11492 kPa): 1010.7 ± 1.2 kg/m3
- mass density (11508 kPa): 1010.8 ± 1.2 kg/m3
- mass density (11524 kPa): 1010.8 ± 1.2 kg/m3
- mass density (11541 kPa): 1010.7 ± 1.2 kg/m3
- mass density (11560 kPa): 1010.8 ± 1.2 kg/m3
- mass density (11577 kPa): 1010.7 ± 1.2 kg/m3
- mass density (11593 kPa): 1010.8 ± 1.2 kg/m3
- mass density (11613 kPa): 1010.9 ± 1.2 kg/m3
- mass density (11630 kPa): 1010.7 ± 1.2 kg/m3
- mass density (11649 kPa): 1010.9 ± 1.2 kg/m3
- mass density (11682 kPa): 1010.8 ± 1.2 kg/m3
- mass density (11753 kPa): 1010.9 ± 1.2 kg/m3
- mass density (11773 kPa): 1011 ± 1.2 kg/m3
- mass density (11790 kPa): 1010.9 ± 1.2 kg/m3
- mass density (11807 kPa): 1010.8 ± 1.2 kg/m3
- mass density (11828 kPa): 1011 ± 1.2 kg/m3
- mass density (11844 kPa): 1010.9 ± 1.2 kg/m3
- mass density (11862 kPa): 1010.9 ± 1.2 kg/m3
- mass density (11899 kPa): 1011 ± 1.2 kg/m3
- mass density (11916 kPa): 1011 ± 1.2 kg/m3
- mass density (11936 kPa): 1011.1 ± 1.2 kg/m3
- mass density (11954 kPa): 1010.9 ± 1.2 kg/m3
- mass density (11971 kPa): 1011 ± 1.2 kg/m3
- mass density (11988 kPa): 1011.1 ± 1.2 kg/m3
- mass density (12009 kPa): 1011 ± 1.2 kg/m3
- mass density (12027 kPa): 1011 ± 1.2 kg/m3
- mass density (12044 kPa): 1011 ± 1.2 kg/m3
- mass density (12062 kPa): 1011.2 ± 1.2 kg/m3
- mass density (12082 kPa): 1011.1 ± 1.2 kg/m3
- mass density (12099 kPa): 1011.2 ± 1.2 kg/m3
- mass density (12119 kPa): 1011.2 ± 1.2 kg/m3
- mass density (12137 kPa): 1011.1 ± 1.2 kg/m3
- mass density (12154 kPa): 1011.1 ± 1.2 kg/m3
- mass density (12171 kPa): 1011 ± 1.2 kg/m3
- mass density (12192 kPa): 1011.2 ± 1.2 kg/m3
- mass density (12209 kPa): 1011.1 ± 1.2 kg/m3
- mass density (12231 kPa): 1011.3 ± 1.2 kg/m3
- mass density (12249 kPa): 1011.2 ± 1.2 kg/m3
- mass density (12267 kPa): 1011.2 ± 1.2 kg/m3
- mass density (12290 kPa): 1011.1 ± 1.2 kg/m3
- mass density (12309 kPa): 1011.2 ± 1.2 kg/m3
- mass density (12310 kPa): 1011.2 ± 1.2 kg/m3
- mass density (12311 kPa): 1011.2 ± 1.2 kg/m3
- mass density (12312 kPa): 1011.2 ± 1.2 kg/m3 and 1011.4 ± 1.2 kg/m3
- mass density (12313 kPa): 1011.1 ± 1.2 kg/m3
- mass density (12314 kPa): 1011.2 ± 1.2 kg/m3 and 1011.3 ± 1.2 kg/m3
- mass density (12315 kPa): 1011.3 ± 1.2 kg/m3
- mass density (12316 kPa): 1011.2 ± 1.2 kg/m3
- mass density (12317 kPa): 1011.2 ± 1.2 kg/m3
- mass density (12318 kPa): 1011.3 ± 1.2 kg/m3 and 1011.2 ± 1.2 kg/m3
- mass density (12319 kPa): 1011.4 ± 1.2 kg/m3 and 1011.1 ± 1.2 kg/m3
- mass density (12320 kPa): 1011.3 ± 1.2 kg/m3 and 1011.2 ± 1.2 kg/m3
- mass density (12321 kPa): 1011.2 ± 1.2 kg/m3
- mass density (12322 kPa): 1011.3 ± 1.2 kg/m3 and 1011.2 ± 1.2 kg/m3
- mass density (12323 kPa): 1011.3 ± 1.2 kg/m3 and 1011.2 ± 1.2 kg/m3
- mass density (12324 kPa): 1011.3 ± 1.2 kg/m3
- mass density (12325 kPa): 1011.2 ± 1.2 kg/m3 and 1011.3 ± 1.2 kg/m3
- mass density (12326 kPa): 1011.2 ± 1.2 kg/m3 and 1011 ± 1.2 kg/m3
- mass density (12327 kPa): 1011.3 ± 1.2 kg/m3
- mass density (12328 kPa): 1011.2 ± 1.2 kg/m3
- mass density (12332 kPa): 1011.3 ± 1.2 kg/m3
- mass density (12334 kPa): 1011.3 ± 1.2 kg/m3
- mass density (12336 kPa): 1011.3 ± 1.2 kg/m3
- mass density (12339 kPa): 1011.4 ± 1.2 kg/m3
- mass density (12343 kPa): 1011.3 ± 1.2 kg/m3 and 1011.2 ± 1.2 kg/m3
- mass density (12348 kPa): 1011.2 ± 1.2 kg/m3
- mass density (12351 kPa): 1011.1 ± 1.2 kg/m3
- mass density (12354 kPa): 1011.4 ± 1.2 kg/m3
- mass density (12356 kPa): 1011.2 ± 1.2 kg/m3
- mass density (12359 kPa): 1011.2 ± 1.2 kg/m3
- mass density (12362 kPa): 1011.3 ± 1.2 kg/m3
- mass density (12363 kPa): 1011.2 ± 1.2 kg/m3
- mass density (12364 kPa): 1011.3 ± 1.2 kg/m3
- mass density (12366 kPa): 1011.3 ± 1.2 kg/m3
- mass density (12380 kPa): 1011.2 ± 1.2 kg/m3
- mass density (12399 kPa): 1011.3 ± 1.2 kg/m3
- mass density (12414 kPa): 1011.3 ± 1.2 kg/m3
- mass density (12431 kPa): 1011.3 ± 1.2 kg/m3
- mass density (12446 kPa): 1011.2 ± 1.2 kg/m3
- mass density (12461 kPa): 1011.2 ± 1.2 kg/m3
- mass density (12476 kPa): 1011.4 ± 1.2 kg/m3
- mass density (12494 kPa): 1011.4 ± 1.2 kg/m3
- mass density (12509 kPa): 1011.3 ± 1.2 kg/m3
- mass density (12527 kPa): 1011.3 ± 1.2 kg/m3
- mass density (12543 kPa): 1011.3 ± 1.2 kg/m3
- mass density (12558 kPa): 1011.3 ± 1.2 kg/m3
- mass density (12577 kPa): 1011.3 ± 1.2 kg/m3
- mass density (12592 kPa): 1011.4 ± 1.2 kg/m3
- mass density (12607 kPa): 1011.5 ± 1.2 kg/m3
- mass density (12622 kPa): 1011.2 ± 1.2 kg/m3
- mass density (12640 kPa): 1011.4 ± 1.2 kg/m3
- mass density (12656 kPa): 1011.5 ± 1.2 kg/m3
- mass density (12674 kPa): 1011.4 ± 1.2 kg/m3
- mass density (12689 kPa): 1011.3 ± 1.2 kg/m3
- mass density (12705 kPa): 1011.5 ± 1.2 kg/m3
- mass density (12723 kPa): 1011.3 ± 1.2 kg/m3
- mass density (12738 kPa): 1011.5 ± 1.2 kg/m3
- mass density (12754 kPa): 1011.5 ± 1.2 kg/m3
- mass density (12768 kPa): 1011.5 ± 1.2 kg/m3
- mass density (12786 kPa): 1011.4 ± 1.2 kg/m3
- mass density (12800 kPa): 1011.5 ± 1.2 kg/m3
- mass density (12814 kPa): 1011.5 ± 1.2 kg/m3
- mass density (12831 kPa): 1011.5 ± 1.2 kg/m3
- mass density (12845 kPa): 1011.5 ± 1.2 kg/m3
- mass density (12862 kPa): 1011.5 ± 1.2 kg/m3
- mass density (12875 kPa): 1011.5 ± 1.2 kg/m3
- mass density (12889 kPa): 1011.5 ± 1.2 kg/m3
- mass density (12903 kPa): 1011.5 ± 1.2 kg/m3
- mass density (12919 kPa): 1011.4 ± 1.2 kg/m3
- mass density (12933 kPa): 1011.6 ± 1.2 kg/m3
